From patent publication US10040781B2, “Tank-binding kinase inhibitor compounds” (Gilead Sciences, Inc., priority 2014, dated 2018)

Assays:
IKKε = IKKε (Homo sapiens (Human), UniProt Q14164); assay: IKKε TR-FRET enzymatic assay; format: biochemical; details: TR-FRET, 2×Km ATP; geometric mean of minimum four determinations; read-out: IKKe IC50
TBK1 = TBK1 (Homo sapiens (Human), UniProt Q9UHD2); assay: TBK1 TR-FRET enzymatic assay;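 note: phosphorylation of a biotinylated Ser/Thr peptide by purified full-length recombinant TBK1, read by TR-FRET after 240 min at 25 °C, IC50 is the geometric mean of at least four runs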
Chain of TBK1 (Q9UHD2 whole entry): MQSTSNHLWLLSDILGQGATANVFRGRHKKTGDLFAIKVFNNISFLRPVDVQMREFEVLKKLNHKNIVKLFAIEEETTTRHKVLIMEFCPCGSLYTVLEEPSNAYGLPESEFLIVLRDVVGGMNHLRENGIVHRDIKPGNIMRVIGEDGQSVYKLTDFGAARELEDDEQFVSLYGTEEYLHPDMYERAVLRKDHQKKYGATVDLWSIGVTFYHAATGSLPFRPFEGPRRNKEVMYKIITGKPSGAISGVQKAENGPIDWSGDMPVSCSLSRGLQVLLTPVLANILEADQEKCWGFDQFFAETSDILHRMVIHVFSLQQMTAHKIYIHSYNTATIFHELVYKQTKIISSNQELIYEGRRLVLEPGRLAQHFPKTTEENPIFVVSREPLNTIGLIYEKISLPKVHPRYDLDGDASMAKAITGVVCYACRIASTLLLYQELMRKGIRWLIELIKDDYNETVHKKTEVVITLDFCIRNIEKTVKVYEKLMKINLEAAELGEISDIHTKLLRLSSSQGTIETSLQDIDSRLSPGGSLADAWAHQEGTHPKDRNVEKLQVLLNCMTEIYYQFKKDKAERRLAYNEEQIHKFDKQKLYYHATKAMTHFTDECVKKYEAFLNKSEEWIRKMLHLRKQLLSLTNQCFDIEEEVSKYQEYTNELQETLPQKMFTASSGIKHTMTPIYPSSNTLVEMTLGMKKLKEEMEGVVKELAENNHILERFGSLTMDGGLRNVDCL

hJAK2 = hJAK2 (Homo sapiens (Human), UniProt O60674); assay: hJAK2 LANCE TR-FRET enzymatic assay; format: biochemical; details: read-out: JAK2 IC50
Chain of hJAK2 (O60674 whole entry): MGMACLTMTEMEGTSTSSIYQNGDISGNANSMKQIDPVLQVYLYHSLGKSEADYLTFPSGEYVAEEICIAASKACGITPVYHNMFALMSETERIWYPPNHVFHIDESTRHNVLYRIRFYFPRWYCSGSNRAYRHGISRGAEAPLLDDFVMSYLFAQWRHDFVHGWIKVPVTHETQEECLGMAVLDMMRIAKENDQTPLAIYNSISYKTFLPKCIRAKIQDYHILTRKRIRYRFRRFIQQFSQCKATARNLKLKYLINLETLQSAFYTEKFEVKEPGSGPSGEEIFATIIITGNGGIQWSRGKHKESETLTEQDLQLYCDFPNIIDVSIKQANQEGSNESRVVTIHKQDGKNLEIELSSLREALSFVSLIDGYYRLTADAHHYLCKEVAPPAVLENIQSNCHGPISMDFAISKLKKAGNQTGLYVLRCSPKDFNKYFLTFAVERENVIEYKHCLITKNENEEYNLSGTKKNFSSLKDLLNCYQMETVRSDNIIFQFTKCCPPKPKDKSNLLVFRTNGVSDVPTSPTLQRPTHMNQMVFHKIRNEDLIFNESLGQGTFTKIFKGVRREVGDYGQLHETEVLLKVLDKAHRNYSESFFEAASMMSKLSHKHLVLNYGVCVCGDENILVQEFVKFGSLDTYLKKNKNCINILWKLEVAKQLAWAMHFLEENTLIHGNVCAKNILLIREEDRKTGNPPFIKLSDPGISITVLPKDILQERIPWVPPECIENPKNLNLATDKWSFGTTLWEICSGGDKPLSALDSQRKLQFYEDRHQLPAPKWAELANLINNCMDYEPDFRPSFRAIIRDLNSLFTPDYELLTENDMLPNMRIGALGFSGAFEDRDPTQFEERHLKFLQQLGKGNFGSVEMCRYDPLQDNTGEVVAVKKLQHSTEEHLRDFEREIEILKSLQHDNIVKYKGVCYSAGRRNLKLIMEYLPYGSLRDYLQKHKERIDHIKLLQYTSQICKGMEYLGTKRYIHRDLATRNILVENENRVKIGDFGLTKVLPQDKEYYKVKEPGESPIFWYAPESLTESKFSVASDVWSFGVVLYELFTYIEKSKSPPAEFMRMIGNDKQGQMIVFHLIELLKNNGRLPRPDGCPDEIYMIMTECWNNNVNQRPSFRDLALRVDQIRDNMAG

Chain of IKKε (Q14164 whole entry): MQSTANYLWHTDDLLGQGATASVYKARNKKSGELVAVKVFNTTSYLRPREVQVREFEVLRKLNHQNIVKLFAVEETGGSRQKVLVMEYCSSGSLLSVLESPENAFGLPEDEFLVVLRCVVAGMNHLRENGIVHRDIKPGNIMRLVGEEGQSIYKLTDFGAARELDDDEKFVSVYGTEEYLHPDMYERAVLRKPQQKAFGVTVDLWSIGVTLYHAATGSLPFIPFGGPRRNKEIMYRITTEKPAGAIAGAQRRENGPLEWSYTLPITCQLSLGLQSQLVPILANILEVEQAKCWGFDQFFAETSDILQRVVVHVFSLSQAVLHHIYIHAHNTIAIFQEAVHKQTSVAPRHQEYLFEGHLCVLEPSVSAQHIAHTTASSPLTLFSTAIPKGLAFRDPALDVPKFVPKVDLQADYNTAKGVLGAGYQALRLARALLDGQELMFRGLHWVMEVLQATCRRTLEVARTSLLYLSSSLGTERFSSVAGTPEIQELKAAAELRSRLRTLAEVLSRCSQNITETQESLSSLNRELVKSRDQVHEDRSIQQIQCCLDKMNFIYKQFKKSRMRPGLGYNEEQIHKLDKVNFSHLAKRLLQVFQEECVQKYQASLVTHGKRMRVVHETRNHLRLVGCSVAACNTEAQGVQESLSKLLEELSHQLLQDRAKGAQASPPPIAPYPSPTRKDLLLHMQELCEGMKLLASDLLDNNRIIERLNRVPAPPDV

SMILES | IC50 (IKKε) | IC50 (TBK1) | IC50 (hJAK2)
N#Cc1cc(-c2ncnc(Nc3ccc(N4CCN(C5COC5)CC4)cc3)n2)ccc1O[C@H]1CCN(C(=O)[C@@H]2CNC(=O)C2)C[C@H]1F [Example 548, 2-(((3R,4S)-3-fluoro-1-((S)-5-oxopyrrolidine-3-carbonyl)piperidin-4-yl)oxy)-5-(4-((4-(4-(oxetan-3-yl)piperazin-1-yl)phenyl)amino)-1,3,5-triazin-2-yl)benzonitrile] | 96 nM | 21 nM | 353 nM
CS(=O)(=O)CC(=O)N1CC[C@H](Oc2ccc(-c3ncnc(Nc4ccc(N5CCN(C6COC6)CC5)cc4)n3)cc2C#N)[C@H](F)C1 [Example 549, 2-(((3R,4S)-3-fluoro-1-(2-(methylsulfonyl)acetyl)piperidin-4-yl)oxy)-5-(4-((4-(4-(oxetan-3-yl)piperazin-1-yl)phenyl)amino)-1,3,5-triazin-2-yl)benzonitrile] | 11 nM | 4 nM | 179 nM
N#Cc1cc(-c2ncnc(Nc3ccc(N4CCN(C5COC5)CC4)cc3)n2)ccc1O[C@H]1CCN(C(=O)C2CC(O)C2)C[C@H]1F (stereo partly drawn) [Example 550, 2-(((3R,4S)-3-fluoro-1-(3-hydroxycyclobutanecarbonyl)piperidin-4-yl)oxy)-5-(4-((4-(4-(oxetan-3-yl)piperazin-1-yl)phenyl)amino)-1,3,5-triazin-2-yl)benzonitrile] | 36 nM | 11 nM | 750 nM
N#Cc1cc(-c2ncnc(Nc3ccc(N4CCN(C5COC5)CC4)cc3)n2)ccc1O[C@H]1CCN(C(=O)C2CCNC2=O)C[C@H]1F (stereo partly drawn) [Example 551, 2-(((3R,4S)-3-fluoro-1-(2-oxopyrrolidine-3-carbonyl)piperidin-4-yl)oxy)-5-(4-((4-(4-(oxetan-3-yl)piperazin-1-yl)phenyl)amino)-1,3,5-triazin-2-yl)benzonitrile] | 92 nM | 16 nM | 799 nM
N#Cc1cc(-c2ncnc(Nc3ccc(N4CCN(C5COC5)CC4)cc3)n2)ccc1O[C@H]1CCN(C(=O)[C@H]2CNC(=O)C2)C[C@H]1F [Example 552, 2-(((3R,4S)-3-fluoro-1-((R)-5-oxopyrrolidine-3-carbonyl)piperidin-4-yl)oxy)-5-(4-((4-(4-(oxetan-3-yl)piperazin-1-yl)phenyl)amino)-1,3,5-triazin-2-yl)benzonitrile] | 174 nM | 28 nM | 562 nM
CC(C)(O)CC(=O)N1CC[C@H](Oc2ccc(-c3ncnc(Nc4ccc(N5CCN(C6COC6)CC5)cc4)n3)cc2C#N)[C@H](F)C1 [Example 553, 2-(((3R,4S)-3-fluoro-1-(3-hydroxy-3-methylbutanoyl)piperidin-4-yl)oxy)-5-(4-((4-(4-(oxetan-3-yl)piperazin-1-yl)phenyl)amino)-1,3,5-triazin-2-yl)benzonitrile] | 51 nM | 38 nM | ≥ 1000 nM
C[C@H](O)C(=O)N1CC[C@H](Oc2ccc(-c3ncnc(Nc4ccc(-n5ccnc5)cc4)n3)cc2C#N)[C@H](F)C1 [Example 554, 5-(4-((4-(1H-imidazol-1-yl)phenyl)amino)-1,3,5-triazin-2-yl)-2-(((3R,4S)-3-fluoro-1-((S)-2-hydroxypropanoyl)piperidin-4-yl)oxy)benzonitrile] | 4 nM | 5 nM | ≥ 1000 nM
N#Cc1cc(-c2ncnc(Nc3ccc(N4CCOCC4)cc3)n2)ccc1O[C@H]1CCN(C(=O)[C@@H](O)CO)C[C@H]1F [Example 555, 2-(((3R,4S)-1-((S)-2,3-dihydroxypropanoyl)-3-fluoropiperidin-4-yl)oxy)-5-(4-((4-morpholinophenyl)amino)-1,3,5-triazin-2-yl)benzonitrile] | 1 nM | 4 nM | 732 nM
N#Cc1cc(-c2ncnc(Nc3ccc(N4CCOCC4)cc3F)n2)ccc1O[C@H]1CCN(C(=O)[C@@H](O)CO)C[C@H]1F [Example 556, 2-(((3R,4S)-1-((S)-2,3-dihydroxypropanoyl)-3-fluoropiperidin-4-yl)oxy)-5-(4-((2-fluoro-4-morpholinophenyl)amino)-1,3,5-triazin-2-yl)benzonitrile] | 5 nM | 3 nM | ≥ 1000 nM
